In US7863465B2, “Antifungal agents” (Merck Sharp & Dohme Corp., priority 2006, dated 2011):
pIC50: −log10 of the molar value.

These compounds were tested against T1, glucan synthase (GS) prepared from Candida albicans MY1055 (Candida albicans, UniProt O13428) (assay: Glucan synthase inhibition (polymerization assay, 96-well, 3H-UDPG incorporation)). Details: glucan synthase from C. albicans MY1055.
T1 construct: Extraction of GS activity from membranes was performed at a protein concentration of 5 mg/mL in extraction buffer; endogenous in cells; host or cells: Candida albicans MY1055 (membranes, detergent extract, product entrapment)
Format: biochemical
Experimental: The in vitro evaluation of glucan synthase inhibitory activity of compounds was measured in a polymerization assay in 96-well format. Each well contained 100 μL of ^3H-UDPG at 0.5 mM (6000 to 8000 dpm/nmol), 50 mM HEPES pH 7.5 (Sigma), 10% w/v glycerol (Sigma), 1.5 mg/mL bovine serum albumin (Sigma A 9647. Lot 44H0190), 25 mM KF (Fisher), 1 mM EDTA (Gibco Ultrapure), 25 μM GTP-γ-S, enzyme sufficient to give 3 to 6 nmoles incorporation during the 60 min incubation at 22° C., and test compound added from wells in 3-fold serial dilutions in 100% DMSO (1 μL/well). The reaction was stopped by the addition of 100 μL of 20% trichloroacetic acid. Plates were chilled for a minimum of 10 min, and precipitated glucan collected by filtration on GF/C plates (Packard Unifilter®-96), washed with 5 cycles of water (about 1 mL/well each cycle) using a Packard Filtermate Harvester. 40 μL/well scintillation fluid (Packard Ultima Gold TM-XR) was added and the sealed plates counted in a Wallac Beta counter in top-counting mode at an efficiency of approximately 40%.
Stock solutions were stored at 10 mg/mL in DMSO at −20° C. For each new enzyme preparation, the initial titration performed started at 1 mg/mL, which was prepared by making a 10-fold dilution in DMSO (5 μL to 50 μL). 40 μL of this stock was placed in column 12 of a round-bottomed 96-well microtiter plate. 40 μL DMSO was added to columns 1 to 11 in the same row and ten 3-fold serial dilutions performed, by transferring 20 μL from column 12 to column 11 etc., with 4 mixings before each transfer. No test compound was transferred to from column 2 to column 1. Duplicate aliquots of 1 μL of all 12 dilutions were then transferred to the side walls of a 96-well Bioblock 1.1 mL plate (Fisherbrand) to create two rows.
The results were tabulated and a standard plate background was subtracted and the net count transpose-pasted into a Prism file, with final compound concentrations used in ng/mL. Graphs were created in Prism software, using the average of two determinations, and using Prism's curve fitting program (sigmoidal dose response non-linear regression).
Routine analysis was performed with glucan synthase (GS) prepared from Candida albicans MY1055 by the following procedure: MY1055 was grown in 10 liters YPD medium (10 g yeast extract, 20 g tryptone, 20 g glucose per liter) with vigorous shaking at 30° C., to early stationary phase. Cells were harvested by centrifugation, the pellet was washed and frozen at −70° C. until breakage. Thawed pellets were shaken with an equal volume of breakage buffer (50 mM HEPES pH 7.4, 10% glycerol, 1 mM EDTA, 1 mM PMSF, 1 mM DTT) and 4 times their weight of 0.5 mm acid washed glass beads for 2 hours at 4° C. Extent of breakage was assessed visually at 40× magnification. For C. parapsilosis strains, shaking was extended to 3 hours to maximize breakage. After low speed centrifugation to remove cell debris, the supernatant was centrifuged at 100,000×g for 60 min. to separate membranes plus ribosomes from cytoplasmic components. Membranes were further washed two additional times with breakage buffer using the same centrifugation conditions and finally suspended in breakage buffer at 25 to 30 mg/mL protein (Biorad) for storage at −70° C. Extraction of GS activity from membranes was performed at a protein concentration of 5 mg/mL in extraction buffer (50 mM NaPO4 pH 7.5, 0.1 M KCl, 0.1M Na citrate, 20% glycerol, 5 μM GTP-γ-S, 1 mM DTT, 1 mM PMSF, 3 μg/mL pepstatin) plus 0.25% W1 by gentle mixing at 4° C. for 60 min, followed by centrifugation at 100,000×g for 60 min. After centrifugation, clear supernatant was removed from a pellet consisting of a hard layer usually with small amounts of gelatinous unextracted membranes above it. […]

T1 sequence (O13428 1-1897): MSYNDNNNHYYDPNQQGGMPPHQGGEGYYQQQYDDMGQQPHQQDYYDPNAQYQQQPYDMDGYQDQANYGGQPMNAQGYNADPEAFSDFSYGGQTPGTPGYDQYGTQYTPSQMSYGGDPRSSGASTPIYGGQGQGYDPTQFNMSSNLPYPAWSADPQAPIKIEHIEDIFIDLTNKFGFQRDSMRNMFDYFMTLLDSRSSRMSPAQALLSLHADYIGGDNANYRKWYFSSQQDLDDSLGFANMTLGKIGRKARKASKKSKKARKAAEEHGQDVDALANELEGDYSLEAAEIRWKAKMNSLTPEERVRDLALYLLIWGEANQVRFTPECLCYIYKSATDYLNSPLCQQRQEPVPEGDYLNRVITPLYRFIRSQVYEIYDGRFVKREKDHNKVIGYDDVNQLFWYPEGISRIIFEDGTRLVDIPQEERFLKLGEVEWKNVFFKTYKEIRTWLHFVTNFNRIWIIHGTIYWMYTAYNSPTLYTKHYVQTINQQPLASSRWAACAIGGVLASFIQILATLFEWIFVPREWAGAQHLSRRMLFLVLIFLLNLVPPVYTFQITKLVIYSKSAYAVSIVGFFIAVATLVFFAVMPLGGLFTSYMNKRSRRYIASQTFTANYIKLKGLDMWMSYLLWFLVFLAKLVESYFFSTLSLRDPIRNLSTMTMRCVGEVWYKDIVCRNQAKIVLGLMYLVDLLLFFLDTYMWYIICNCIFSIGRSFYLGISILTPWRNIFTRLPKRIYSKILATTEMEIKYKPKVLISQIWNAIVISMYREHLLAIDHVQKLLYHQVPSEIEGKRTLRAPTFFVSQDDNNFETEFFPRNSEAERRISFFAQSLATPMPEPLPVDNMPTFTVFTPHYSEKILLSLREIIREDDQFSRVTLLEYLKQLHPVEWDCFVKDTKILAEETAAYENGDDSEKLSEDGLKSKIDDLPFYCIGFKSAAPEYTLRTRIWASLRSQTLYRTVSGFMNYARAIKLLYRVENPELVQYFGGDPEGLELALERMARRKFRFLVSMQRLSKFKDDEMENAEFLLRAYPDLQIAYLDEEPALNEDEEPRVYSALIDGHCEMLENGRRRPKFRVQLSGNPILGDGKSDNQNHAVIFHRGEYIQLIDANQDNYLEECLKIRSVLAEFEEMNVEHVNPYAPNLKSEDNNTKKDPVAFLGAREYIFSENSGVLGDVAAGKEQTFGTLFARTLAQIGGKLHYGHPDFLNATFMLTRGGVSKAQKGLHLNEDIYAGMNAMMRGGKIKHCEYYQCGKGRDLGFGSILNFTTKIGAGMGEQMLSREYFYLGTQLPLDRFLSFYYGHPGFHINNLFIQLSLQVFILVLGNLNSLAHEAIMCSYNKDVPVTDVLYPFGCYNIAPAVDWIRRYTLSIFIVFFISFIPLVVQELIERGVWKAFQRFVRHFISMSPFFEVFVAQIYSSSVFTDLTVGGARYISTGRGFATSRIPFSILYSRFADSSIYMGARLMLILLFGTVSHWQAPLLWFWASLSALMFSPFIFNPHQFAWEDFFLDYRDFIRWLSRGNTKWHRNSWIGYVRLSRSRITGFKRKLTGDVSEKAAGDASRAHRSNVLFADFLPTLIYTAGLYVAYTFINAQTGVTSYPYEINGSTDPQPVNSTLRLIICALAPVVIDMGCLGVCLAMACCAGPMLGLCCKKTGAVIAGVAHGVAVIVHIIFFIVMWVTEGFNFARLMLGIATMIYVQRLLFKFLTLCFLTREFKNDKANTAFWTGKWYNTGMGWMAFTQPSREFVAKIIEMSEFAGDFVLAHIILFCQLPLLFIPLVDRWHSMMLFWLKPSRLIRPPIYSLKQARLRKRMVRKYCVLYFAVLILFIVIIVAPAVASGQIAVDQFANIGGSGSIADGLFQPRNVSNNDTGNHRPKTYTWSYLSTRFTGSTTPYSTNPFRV
T1 sequence (O42825 whole entry partner): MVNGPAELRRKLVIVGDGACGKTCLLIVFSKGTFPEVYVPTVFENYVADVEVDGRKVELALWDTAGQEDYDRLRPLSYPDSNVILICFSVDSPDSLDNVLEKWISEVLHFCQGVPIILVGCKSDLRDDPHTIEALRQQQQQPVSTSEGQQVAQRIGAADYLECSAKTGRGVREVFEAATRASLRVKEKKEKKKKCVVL

Row | pIC50 | Structure (SMILES)
1 | 7.09 | CC(=O)O[C@@H]1C[C@@]23COC[C@](C)([C@@H]2CC[C@H]2C3=CC[C@@]3(C)[C@H](C(=O)O)[C@@](C)([C@H](C)C(C)C)CC[C@]23C)[C@H]1OCCN [Example 1, (1S,2R,3R,4aR,6aS,7R,8R,10aR,10bR,12aR)-3-(acetyloxy)-2-(2-aminoethoxy)-8-[(1R)-1,2-dimethylpropyl]-1,6a,8,10a-tetramethyl-1,3,4,6,6a,7,8,9,10,10a,10b,11,12,12a-tetradecahydro-2H-1,4a-(methanooxymethano)chrysene-7-carboxylic acid]
2 | 7.41 | CC(=O)O[C@@H]1C[C@@]23COC[C@](C)(C2CC[C@H]2C3=CC[C@@]3(C)[C@H](C(=O)O)[C@@](C)([C@H](C)C(C)C)CC[C@]23C)[C@H]1OCC(C)N (stereo partly drawn) [Example 2, (1S,2R,3R,4aR,6aS,7R,8R,10aR,10bR,12aR)-3-(Acetyloxy)-2-(2-aminopropoxy)-8-[(1R)-1,2-dimethylpropyl]-1,6a,8,10a-tetramethyl-1,3,4,6,6a,7,8,9,10,10a,10b,11,12,12a-tetradecahydro-2H-1,4a-(methanooxymethano)chrysene-7-carboxylic acid]
3 | 6.90 | CC(=O)O[C@@H]1C[C@@]23COC[C@](C)([C@@H]2CC[C@H]2C3=CC[C@@]3(C)[C@H](C(=O)O)[C@@](C)([C@H](C)C(C)C)CC[C@]23C)[C@H]1OCCNC(=O)C(N)CN (stereo partly drawn) [Example 5, (1S,2R,3R,4aR,6aS,7R,8R,10aR,10bR,12aR)-3-(acetyloxy)-2-[2-(2,3-diaminopropionylamino)-ethoxy]-8-[(1R)-1,2-dimethylpropyl]-1,6a,8,10a-tetramethyl-1,3,4,6,6a,7,8,9,10,10a,10b,11,12,12a-tetradecahydro-2H-1,4a-(methanooxymethano)chrysene-7-carboxylic acid]
4 | 7.71 | CC(=O)O[C@@H]1C[C@@]23COC[C@](C)([C@@H]2CC[C@H]2C3=CC[C@@]3(C)[C@H](C(=O)O)[C@@](C)([C@H](C)C(C)C)CC[C@]23C)[C@H]1OCCNC(=N)N [Example 6, (1S,2R,3R,4aR,6aS,7R,8R,10aR,10bR,12aR)-3-(acetyloxy)-2-(2-guanidino-ethoxy)-8-[(1R)-1,2-dimethylpropyl]-1,6a,8,10a-tetramethyl-1,3,4,6,6a,7,8,9,10,10a,10b, 11,12,12a-tetradecahydro-2H-1,4a-(methanooxymethano)chrysene-7-carboxylic acid]
5 | 7.60 | CC(=O)O[C@@H]1C[C@@]23COC[C@](C)([C@@H]2CC[C@H]2C3=CC[C@@]3(C)[C@H](C(=O)O)[C@@](C)([C@H](C)C(C)C)CC[C@]23C)[C@H]1OCCNCCCN [Example 8, (1S,2R,3R,4aR,6aS,7R,8R,10aR,10bR,12aR)-3-(acetyloxy)-2-[2-(3-aminopropylamino)-ethoxy]-8-[(1R)-1,2-dimethylpropyl]-1,6a,8,10a-tetramethyl-1,3,4,6,6a,7,8,9,10,10a,10b,11,12,12a-tetradecahydro-2H-1,4a-(methanooxymethano)chrysene-7-carboxylic acid]
6 | 7.22 | CC(=O)O[C@@H]1C[C@@]23COC[C@](C)(C2CC[C@H]2C3=CC[C@@]3(C)[C@H](C(=O)O)[C@@](C)([C@H](C)C(C)C)CC[C@]23C)[C@H]1OCCNC[C@@H](N)CCCCN (stereo partly drawn) [Example 21, (1S,2R,3R,4aR,6aS,7R,8R,10aR,10bR,12aR)-3-(acetyloxy)-2-[2-((S)-2,6-diaminohexylamino)-ethoxy]-8-[(1R)-1,2-dimethylpropyl]-1,6a,8,10a-tetramethyl-1,3,4,6,6a,7,8,9,10,10a,10b,11,12,12a-tetradecahydro-2H-1,4a-(methanooxymethano)chrysene-7-carboxylic acid]
7 | 7.48 | CC(=O)O[C@@H]1C[C@@]23COC[C@](C)(C2CC[C@H]2C3=CC[C@@]3(C)[C@H](C(=O)O)[C@@](C)([C@H](C)C(C)C)CC[C@]23C)[C@H]1OCCNC(=N)NC(C)(C)C (stereo partly drawn) [Example 24, (1S,2R,3R,4aR,6aS,7R,8R,10aR,10bR,12aR)-3-(acetyloxy)-2-[2-(N′-tert-butylguanidino)-ethoxy]-8-[(1R)-1,2-dimethylpropyl]-1,6a,8,10a-tetramethyl-1,3,4,6,6a,7,8,9,10,10a,10b,11,12,12a-tetradecahydro-2H-1,4a-(methanooxymethano)chrysene-7-carboxylic acid]
8 | 7.32 | CC(=O)O[C@@H]1C[C@@]23COC[C@@](C)([C@@H]2CC[C@H]2C3=CC[C@@]3(C)[C@H](C(=O)O)[C@@](C)([C@H](C)C(C)C)CC[C@]23C)[C@H]1OCCCN [Example 35, (1S,2R,3R,4aR,6aS,7R,8R,10aR,10bR,12aR)-3-(acetyloxy)-2-(3-aminopropoxy)-8-[(1R)-1,2-dimethylpropyl]-1,6a,8,10a-tetramethyl-1,3,4,6,6a,7,8,9,10,10a,10b,11,12,12a-tetradecahydro-2H-1,4a-(methanooxymethano)chrysene-7-carboxylic acid]
9 | 6.21 | CC(=O)O[C@@H]1C[C@@]23COC[C@](C)([C@@H]2CC[C@H]2C3=CC[C@@]3(C)[C@H](C(=O)O)[C@@](C)([C@H](C)C(C)C)CC[C@]23C)[C@H]1OCC(O)(CO)CO [Example 44, (1S,2R,3R,4aR,6aS,7R,8R,10aR,10bR,12aR)-3-(acetyloxy)-2-(2,3-dihydroxy-2-hydroxymethylpropoxy)-8-[(1R)-1,2-dimethylpropyl]-1,6a,8,10a-tetramethyl-1,3,4,6,6a,7,8,9,10,10a,10b,11,12,12a-tetradecahydro-2H-1,4a-(methanooxymethano)chrysene-7-carboxylic acid]
10 | 7.11 | CC(=O)O[C@@H]1C[C@@]23COC[C@](C)([C@@H]2CC[C@H]2C3=CC(=O)[C@@]3(C)[C@H](C(=O)O)[C@@](C)([C@H](C)C(C)C)CC[C@]23C)[C@H]1OCCN [Example 47, (1S,2R,3R,4aR,6aS,7R,8R,10aR,10bR,12aR)-3-(acetyloxy)-2-(2-aminoethoxy)-8-[(1R)-1,2-dimethylpropyl]-1,6a,8,10a-tetramethyl-6-oxo-1,3,4,6,6a,7,8,9,10,10a,10b,11,12,12a-tetradecahydro-2H-1,4a-(methanooxymethano)chrysene-7-carboxylic acid]
11 | 7.54 | CC(=O)O[C@@H]1C[C@@]23COC[C@](C)([C@@H]2CC[C@H]2C3=CC(=O)[C@@]3(C)[C@H](C(=O)O)[C@@](C)([C@H](C)C(C)C)CC[C@]23C)[C@H]1OCCNC(=N)N [Example 48, (1S,2R,3R,4aR,6aS,7R,8R,10aR,10bR,12aR)-3-(acetyloxy)-2-(2-guanidinoethoxy)-8-[(1R)-1,2-dimethylpropyl]-1,6a,8,10a-tetramethyl-6-oxo-1,3,4,6,6a,7,8,9,10,10a,10b,11,12,12a-tetradecahydro-2H-1,4a-(methanooxymethano)chrysene-7-carboxylic acid]

Row | Structure (SMILES) | pIC50
12 | CC(=O)O[C@@H]1C[C@@]23COC[C@](C)(C2CC[C@H]2C3=CC[C@@]3(C)[C@H](C(=O)O)[C@@](C)([C@H](C)C(C)C)CC[C@]23C)[C@H]1OCCCCN (stereo partly drawn) [Example 40, (1S,2R,3R,4aR,6aS,7R,8R,10aR,10bR,12aR)-3-(acetyloxy)-2-(4-aminobutoxy)-8-[(1R)-1,2-dimethylpropyl]-1,6a,8,10a-tetramethyl-1,3,4,6,6a,7,8,9,10,10a,10b,11,12,12a-tetradecahydro-2H-1,4a-(methanooxymethano)chrysene-7-carboxylic acid] | 7.29
